US11446283B2, “Methods and dosing regimens using ibudilast and a second agent for cancer therapy” (MediciNova, Inc., priority 2018, dated 2022)

Tests used:
[1] = system: Patient-derived cell line RN1 (MGMT unmethylated GBM); assay: Efficacy in balb/c nude mice harboring intracranial patient-derived glioblastoma (RN1), Kaplan-Meier survival; details: for survival rate: at 105 days, control 0%; for median survival time: gavage daily; for mice that survived longer than the longest surviving mouse in the control group: n=8
Procedure: Patient-derived cell line RN1 (2 μL) was intra-cranially injected into balb/c nude mice.
6-8 week old balb/c nude mice were used. All procedures, except autopsies, were carried out within a laminar flow cabinet. Tumors were induced following the procedure disclosed in Wakimoto H. et al. (2012) Neuro Oncol. 14(2): 132-44. Balb/c nude mice were weighed and held in groups of four. The mice received an analgesic 2 hours prior to primary human tumor cell implantation—the mice were injected subcutaneously with 5 mg/kg Rimadyl (Carprofen). The animals were anesthetized via continuous mask inhalation of isoflurane (2.5-3%, 1 L/min oxygen for induction and 1-2.5%, 0.2 L/min oxygen for maintenance). The depth of anesthesia was assessed by toe pinch reflex (leg withdrawal) before the procedure began (cf. monitoring sheet #1).
A 2 mm drill hole was made at the stereotactically in the right caudate putamen using the coordinates 1 mm anterior, 1.5 mm lateral, and 3.0 mm below the bregma. A micro-injector unit (holding a 2 μl Hamilton syringe with a 25-gauge needle) connected to the manipulating arm of the stereotactic device was used to inject a 2 μL solution containing 200,000 primary human tumor cells dorsoventrally (DV) at −3 from the skull surface, to deposit cells into the lateral portion of the striatum (right basal ganglia). All injections were made over a period of 10 minutes to ensure optimal parenchymal compliance. The micro-injector needle was retracted and the burr hole in the skull closed using bone-wax (Johnson & Johnson) in order to prevent extracranial tumor growth. Skin was closed using a tissue adhesive (Vetbond). Mice received sterile eye drops (Systane) throughout the procedure to avoid eye dryness.
Two dosages of ibudilast were administered to the balb/c nude mice: 5 mg/kg and 20 mg/kg (both in 100 uL total volume). The dosage of ibudilast was extrapolated from multiple animal studies on rats looking at the treatment of multiple sclerosis (MS) disease and models of central neuropathic pain (Ellis et al. 2014; Reagan-shaw et al. 2008).
10 mg/kg of temozolomide (TMZ) was administered to the balb/c nude mice through intraperitoneal injection.
Five treatment groups were used as follows: • 1. Ibudilast 5 mg/kg by gavage (n=8) • 2. Ibudilast: 20 mg/kg by gavage (n=8) • 3. Combination 1: Ibudilast (5 mg/kg)+TMZ (10 mg/kg) (n=8) • 4. Combination 2: Ibudilast (20 mg/kg)+TMZ (10 mg/kg) (n=8) • 5. Control saline containing polyoxyethylene hydrogenated castor oil 60; 100 μL) (n=8)
For all of the treatment groups (except the control group), ibudilast was administered by gavage (daily) for approximately 59 days (until the last control mouse died) and TMZ was administered via intraperitoneal injection (daily) for two weeks.
At approximately 43 days after tumor implantation, mice were treated with temozolomide (10 mg/kg) and/or ibudilast (5 mg/kg or 20 mg/kg). Ibudilast was administered in a solution of saline containing polyoxyethylene hydrogenated castor oil 60 using the gavage method (100 μl total volume) (Fujimoto et al., 1999 J Neuroimmunology 95:1-2, 35-42). Temozolomide was delivered by intraperitoneal injection (I.P.) in 0.1% dimethyl sulfoxide (DMSO, […] total volume).
At this particular time, animals were carefully monitored (twice daily) as neurological decline can occur rapidly. Typical signs of neurological decline include a hunched posture with an arched back, continuous circling, walking on tip-toes, balance issues, closed eyes, hyperactivity, and seizures. Neurological decline was scored (cf. monitoring sheet #3) for each animal.
When signs of pain, distress or neurological decline were noted, animals were immediately euthanized by inhalation of a progressive overdose of carbon dioxide (cf. B.7). Animals were also immediately euthanized if they lost more than 20% of their body weight.

[2] = in vivo; cited from earlier work

SMILES | median survival ([1]; TMZ 10 mg/kg intraperitoneal daily for two weeks, control 100.5 days) [days] | CNS penetration [2] | effect in the mouse glioblastoma model ([1]; 5 and 20 mg/kg) | survival rate ([1]; ibudilast 5 mg/kg) [%] | survival rate ([1]; ibudilast 20 mg/kg) [%] | median survival time ([1]; ibudilast 5 mg/kg (low dose) monotherapy, control 100.5 days) [days] | mice that survived longer than the longest surviving mouse in the control group ([1]; ibudilast 5 mg/kg) | median survival time ([1]; ibudilast 20 mg/kg (high dose) monotherapy, control 100.5 days) [days] | mice that survived longer than the longest surviving mouse in the control group ([1]; ibudilast 20 mg/kg) | median survival compared with controls (significance) ([1]; monotherapy at either low dose (5 mg/kg) or high dose (20 mg/kg))
Cn1nnc2c(C(N)=O)ncn2c1=O [TMZ, temozolomide] | 105.5 |  |  |  |  |  |  |  |  | 
CC(C)C(=O)c1c(C(C)C)nn2ccccc12 [ibudilast, 3-isobutyryl-2-isopropylpyrazolo[1,5-a]pyridine] |  | good CNS penetration | positive effect | 12 | 25 | 89 | one mouse | 97.5 | two mice | did not significantly differ from the controls
COc1ccc(C2CNC(=O)C2)cc1OC1CCCC1 (centres unmarked) [rolipram] |  | poor penetration |  |  |  |  |  |  |  | 
